Numbers after ± are expanded uncertainties.

The series is described as follows: molar enthalpy of vaporization or sublimation. The following applies: 298 K; Liquid; Chromatographic retention time.
Turning to `CCCCCCCCCCCCCCCCCCCC` [eicosane], the molar enthalpy worked out at 24.833 ± 0.0239 kcal/mol.
Take `CCCCCCCCCCCCCCCCCCCCCC` [docosane]: the molar enthalpy is 26.29 ± 0.239 kcal/mol.
`CCCCCCCCCCCCCCCCCCCCCCCCC` [pentacosane]: the molar enthalpy is 28.466 ± 0.0239 kcal/mol.
As to `CCCCCCCCCCCCCCCCCCCCCCCCCCCC` [octacosane], the molar enthalpy was 30.74 ± 0.12 kcal/mol.
On to `CCCCCCCCOC(=O)c1ccccc1C(=O)OCCCCCCCC` [dioctyl 1,2-benzenedicarboxylate], for which the molar enthalpy came out at 29.33 ± 0.0478 kcal/mol.
For `CCCCCCCCCCCCCCCC(=O)OC` [methyl hexadecanoate] the value was 24.331 ± 0.0239 kcal/mol; for `CCCCCCCCCCCCCCCCCC(=O)OCC` [ethyl octadecanoate], 26.12 ± 0.12 kcal/mol.
On to `CCCCCCCCCCCCCCCCCCCCCCCC` [tetracosane], for which the molar enthalpy stood at 27.749 ± 0.0239 kcal/mol.
In the case of `CCCCCCCCCCCCCCCCCCCC(=O)OC` [methyl eicosanoate], the molar enthalpy was 26.554 ± 0.0239 kcal/mol.
To `CCCCC(CC)COC(=O)c1ccccc1C(=O)OCC(CC)CCCC` (configuration not stated) [bis(2-ethylhexyl) 1,2-benzenedicarboxylate] belongs 27.94 ± 0.0239 kcal/mol; to `CCCCCCCCCCCCCCCCCC(=O)OC` [methyl octadecanoate], 25.789 ± 0.0239 kcal/mol; to `CCCCCCCCCCCCCCCCCCCCC(=O)OC` [methyl heneicosanoate], 27.796 ± 0.0239 kcal/mol.
In the case of `COC(=O)c1ccccc1C(=O)OC` [dimethyl 1,2-benzenedicarboxylate], the molar enthalpy worked out at 20.12 ± 0.0239 kcal/mol.
As to `CCCCOC(=O)c1ccccc1C(=O)OCCCC` [dibutyl phthalate], the molar enthalpy came to 23.73 ± 0.0239 kcal/mol.
Regarding `CCOC(=O)c1ccccc1C(=O)OCC` [diethyl phthalate], the molar enthalpy was determined as 21.18 ± 0.0239 kcal/mol.
With `CCCCOC(=O)c1ccccc1C(=O)OCc1ccccc1` [benzyl butyl 1,2-benzenedioate], the molar enthalpy worked out at 26.24 ± 0.0478 kcal/mol.
For `CCCCCCCCCCCCCCCCCCCCCCCCCC` [hexacosane] the value was 29.16 ± 0.239 kcal/mol.

Source of the values: the NIST ThermoML archive (doi:10.1021/acs.jced.5b00444).
